Data published in patent EP4563579A1, “MACROCYCLIC EGFR INHIBITOR, AND PREPARATION METHOD THEREFOR AND PHARMACEUTICAL USE THEREOF” (Abbisko Therapeutics Co., Ltd., priority 2022, dated 2024).

Tests used:
Type in all cases: cell-based
[1] = tested on: Ba/F3 EGFR-L858R-T790M-C797S (LTC); assay: Cell proliferation assay (CellTiter-Glo), Ba/F3 LTC; settings: Mus musculus, BaF3; Ba/F3 EGFR-L858R-T790M-C797S cells, 72 hour incubation, CTG readout
Experimental: (§1) • DMEM Medium (Gibco, Cat#11965118) • RPMI1640 Medium (Gibco, Cat#11875119) • Fetal Bovine Serum (FBS) (GBICO, Cat#10099-141) • CellTiter-Glo® Luminescent Cell Viability Assay Kit (Promega, Cat#G7572) 96-well, Black, Clear Flat Bottom Plate (Corning®, Cat# 3603)
(§2) • SpectraMax Multimode Microplate Reader MD, 2104-0010A; • CO2 Incubator, Thermo Scientific 3100 Series; • Biosafety Cabinet, Thermo Scientific, 1300 Series A2; • Inverted Microscope, Olympus, CKX41SF; • Siemens Refrigerator, KK25E76TI.
(§3) • 1. Cell Culture and Inoculation: • (1) Harvest cells in a logarithmic growth phase and count the cells using a […]. Test cell viability using a trypan blue exclusion method to ensure that cell viability is above 90%. • (2) Adjust the cell concentration to desired final density; and add 90 µL of cell suspension to a 96-well plate. • (3) Incubate the cells overnight at 37°C, under 5% CO2 and 95% humidity in the 96-well plate. • 2. T0 Reference Data: • (1) Add 10 µL PBS to each well of the T0 plate containing cells. • (2) Thaw the CTG reagent and equilibrate the plate to room temperature for 30 minutes. • (3) Add an equal volume of CTG solution to each well. • (4) Lyse cells by shaking on an orbital shaker for 5 minutes. • (5) Leave the plate at room temperature for 20 minutes to stabilize the luminescence signal. • (6) Read the T0 […]. • 3. Compound Dilution and Addition • (1) Add a corresponding volume of DMSO to a corresponding compound powder according to the compound information sheet to prepare a 10 mM stock solution. • (2) Prepare 1000-fold and 3.16-fold diluted compound solutions. • (3) Dilute the 1000× diluted compound solution 100-fold with PBS to prepare a 10-fold compound solution, with a maximum concentration of 10 µM, nine concentrations and 3.16-fold dilution. Then add 10 µL of the drug solution concentration to individual wells of the 96-well plate seeded with cells. Test each compound concentration in triplicate wells, and the final DMSO concentration is 0.1%. • (4) Incubate the cells in the 96-well plate containing the drug compounds at 37°C, under 5% CO2, and 95% humidity for an additional 72 hour period prior to performing the CTG analysis. • 4. Fluorescence Signal Reading • (1) Thaw the CTG reagent and equilibrate the plate to room temperature for 30 minutes. • (2) Add an equal volume of CTG solution to each well. • (3) Lyse cells by shaking on an orbital shaker for 5 minutes. • (4) Leave the plate at room temperature for 20 minutes to stabilize the […]. • (5) Read fluorescence value. • 5. Data Processing
(§4) Analyze the data by using GraphPad Prism 7.0 software, and use Non-linear S-curve regression to fit the dose-response curves, to calculate the IC50 values (in nM). The specific experiment results are presented in Table 1: [formula] Table 1: Biology Test Results

[2] = tested on: Ba/F3 EGFR-DEL19-C797S (DC); assay: Cell proliferation assay (CellTiter-Glo), Ba/F3 DC; settings: Mus musculus, BaF3; Ba/F3 EGFR-DEL19-C797S cells, 72 hour incubation, CTG readout
Experimental: as §1, §2, §3, §4

[3] = tested on: Ba/F3 EGFR-DEL19-T790M-C797S (DTC); assay: Cell proliferation assay (CellTiter-Glo), Ba/F3 DTC; settings: Ba/F3 EGFR-DEL19-T790M-C797S cells, 72 hour incubation, CTG readout; read-out: IC50 BaF3 DTC
Experimental: as §1, §2, §3, §4

A431 WT = assay: Cell proliferation assay (CellTiter-Glo), A431 WT; settings: Homo sapiens, A-431; A431 WT cells, 72 hour incubation, CTG readout
Experimental: as §1, §2, §3, §4

[4] = tested on: Ba/F3 EGFR-L858R-C797S (LC); assay: Cell proliferation assay (CellTiter-Glo), Ba/F3 LC; settings: Mus musculus, BaF3; Ba/F3 EGFR-L858R-C797S cells, 72 hour incubation, CTG readout
Experimental: as §1, §2, §3, §4

Compound	IC50 [1]	IC50 [2]	IC50 [3]	IC50 (A431 WT)	IC50 [4]
CN1CC(C#Cc2nn3c4cc(ncc24)Nc2ccnc(n2)-c2cnn(C)c2OCC2(CCCC2)C3)C1 [Example 8, 1'-methyl-3'-((1-methylazetidin-3-yl)ethynyl)spiro(cyclopentane-1,6'-8-oxa-3-aza-4(6,1)-pyrazolo[4,3-c]pyridina-2(2,4)-pyrimidina-1(4,5)-pyrazolacyclooctaphane)]	39.4 nM	31.5 nM	27.8 nM	499 nM	63.5 nM
Cn1ncc2c1OCC1(CCCC1)Cn1nc(N3CCC[C@@H](CS(C)(=O)=O)C3)c3cnc(cc31)Nc1ccnc-2n1 [Example 28, (R)-1'-methyl-3'-(3-((methylsulfonyl)methyl)piperidin-1-yl)spiro(cyclopentane-1, 6'-8-oxa-3-aza-4(6,1)-pyrazolo[4,3-c]pyridina-2(2,4)-pyrimidina-1(4,5)-pyrazolacyclooctaphane)]	86.9 nM	12.8 nM	12.4 nM	682 nM	45.7 nM
Cn1ncc2c1OCC1(CCCC1)Cn1nc(N3CC[C@](C)(O)C3)c3cnc(cc31)Nc1ccnc-2n1 [Example 23, (S)-3-methyl-1-(1'-methylspiro(cyclopentane-1,6'-8-oxa-3-aza-4(6,1)-pyrazolo[4,3-c]pyridina-2(2,4)-pyrimidina-1(4,5)-pyrazolacyclooctaphane)-3'-yl)pyrrolidin-3-ol]	8.1 nM	7.8 nM	3.5 nM	771 nM	19.5 nM
Cn1ncc2c1OCC1(CCCC1)Cn1nc(N3CC[C@@H](CS(C)(=O)=O)C3)c3cnc(cc31)Nc1ccnc-2n1 [Example 27, (R)-1'-methyl-3'-(3-((methylsulfonyl)methyl)pyrrolidin-1-yl)spiro(cyclopentane-1 ,6'-8-oxa-3-aza-4(6,1)-pyrazolo[4,3-c]pyridina-2(2,4)-pyrimidina-1(4,5)-pyrazolacyclooctaphane)]	5.2 nM	1.1 nM	1 nM	587 nM	13.4 nM
CC(C)S(=O)(=O)C[C@@H]1CCN(c2nn3c4cc(ncc24)Nc2ccnc(n2)-c2cnn(C)c2OCC2(CCCC2)C3)C1 [Example 31, (R)-3'-(3-((isopropylsulfonyl)methyl)pyrrolidin-1-yl)-1 '-methylspiro(cyclopentane-1,6'-8-oxa-3-aza-4(6,1)-pyrazolo[4,3-c]pyridina-2(2,4)-pyrimidina-1(4,5)-pyrazolacyclooctaphane)]	4.3 nM	3.5 nM	4.8 nM	366 nM	10.8 nM
Cn1ncc2c1OCC1(CCCCC1)Cn1nc(N3CC[C@@H](CS(C)(=O)=O)C3)c3cnc(cc31)Nc1ccnc-2n1 [Example 32, (R)-1'-methyl-3'-(3-((methylsulfonyl)methyl)pyrrolidin-1-yl)spiro(cyclohexane-1, 6'-8-oxa-3-aza-4(6,1)-pyrazolo[4,3-c]pyridina-2(2,4)-pyrimidina-1(4,5)-pyrazolacyclooctaphane)]	12.1 nM	5.1 nM	10.5 nM	543 nM	14.9 nM
C[C@H]1CCOc2c(cnn2C)-c2nccc(n2)Nc2cc3c(cn2)c(N2CC(CS(C)(=O)=O)C2)nn31 [Example A4, (S)-1^1,5-dimethyl-4^3-(3-((methylsulfonyl)methyl)azetidin-1-yl)-1^1H,4^1H-8-oxa-3-az a-4(6,1)-pyrazolo[4,3-c]pyri dina-2(2,4)-pyrimidina-1(4, 5)-pyrazolacyclooctaphane]	186 nM	176 nM	244 nM	2680 nM	380 nM
CN1CCC(C#Cc2nn3c4cc(ncc24)Nc2ccnc(n2)-c2cnn(C)c2OCC2(CCC2)C3)CC1 [Example 5, 1'-methyl-3'-((1-methylpiperidin-4-yl)ethynyl)spiro(cyclobutane-1,6'-8-oxa-3-aza-4(6,1)-pyrazolo[4,3-c]pyridina-2(2,4)-pyrimidina-1(4,5)-pyrazolacyclooctaphane)]	9.2 nM	19.7 nM	4.7 nM	1080 nM	14 nM
CC#Cc1nn2c3cc(ncc13)Nc1ccnc(n1)-c1cnn(C)c1OCC[C@@H]2C [Example A1, (S)-1^1,5-dimethyl-4^3-(prop-1-yn-1-yl)-1^1H,4^1H-8-oxa-3-aza-4(6,1)-pyrazolo[4,3-c]py ridina-2(2,4)-pyrimidina-1(4,5)-pyrazolacyclooctaphane]	262 nM	40.9 nM	64.9 nM	2700 nM	299 nM
Cn1ncc2c1OCC1(CCCC1)Cn1nc(N3CC[C@@H](CO)C3)c3cnc(cc31)Nc1ccnc-2n1 [Example 21, (R)-(1-(1'-methylspiro(cyclopentane-1,6'-8-oxa-3-aza-4(6,1)-pyrazolo[4,3-c]pyridina-2(2,4)-pyrimidina-1(4,5) -pyrazolacyclooctaphane)-3 '-yl)pyrrolidin-3-yl)methanol]	4.7 nM	7.1 nM	3.4 nM	171 nM	15.8 nM
Cn1ncc2c1OCC1(CCCCC1)Cn1nc(N3CC[C@H](CS(C)(=O)=O)C3)c3cnc(cc31)Nc1ccnc-2n1 [Example 36, (S)-1'-methyl-3'-(3-((methylsulfonyl)methyl)pyrrolidin-1-yl)spiro(cyclohexane-1,6' -8-oxa-3-aza-4(6,1)-pyrazolo[4,3-c]pyridina-2(2,4)-pyrimidina-1(4,5)-pyrazolacyclooctaphane)]	2 nM	2.5 nM	1.5 nM	614 nM	5.1 nM
Cn1ncc2c1OCC1(CCCC1)Cn1nc(N3CC[C@H](CS(=O)(=O)C4CCCC4)C3)c3cnc(cc31)Nc1ccnc-2n1 [Example 45, (S)-3'-(3-((cyclopentylsulfonyl)methyl)pyrrolidin-1-yl)-1'-methylspiro(cyclopentane-1,6'-8-oxa-3-aza-4(6,1)-pyrazolo[4,3-c]pyridina-2(2, 4)-pyrimidina-1(4,5)-pyrazolacyclooctaphane)]	1.1 nM	4 nM	3.9 nM	738 nM	2.9 nM
CN1CCC(C#Cc2nn3c4cc(ncc24)Nc2ccnc(n2)-c2cnn(C)c2OCC2(CCCC2)C3)C1 (stereo not drawn) [Example 2, 1'-methyl-3-((1-methylpyrrolidin-3-yl)ethynyl)spiro(cyclopentane-1,6'-8-oxa-3-aza-4(6,1)-pyrazolo[4,3-c]pyridina-2(2,4)-pyrimidina-1(4,5)-pyrazolacyclooctaphane)]	12.8 nM	30.4 nM	17.5 nM	603 nM	21.1 nM
Cn1ncc2c1OCC1(CCCC1)Cn1nc(N3CC[C@@H](CS(=O)(=O)C4CC4)C3)c3cnc(cc31)Nc1ccnc-2n1 [Example 30]	5.8 nM	2.5 nM	2.4 nM	744 nM	11.8 nM
CCCCS(=O)(=O)C[C@H]1CCN(c2nn3c4cc(ncc24)Nc2ccnc(n2)-c2cnn(C)c2OCC2(CCCC2)C3)C1 [Example 43, (S)-3'-(3-((butylsulfonyl)methyl)pyrrolidin-1-yl)-1'-me thylspiro(cyclopentane-1,6' -8-oxa-3-aza-4(6,1)-pyrazolo[4,3-c]pyridina-2(2,4)-pyrimidina-1(4,5)-pyrazolacyclooctaphane)]	1.3 nM	5 nM	3.6 nM	700 nM	2.9 nM
